# Several values for one entry are separate records, joined by “and”; a condition that tells them apart may be missing. Equal values may be shown once. Read-outs that look alike come from different tables or passages of the source.
# Experiments:
# [1] = target: T1, SUV39H1 (Homo sapiens, UniProt O43463); assay: Radioisotope-based methyltransferase assay (selectivity); type: biochemical
# T1 construct: purchased Reaction Biology
# [2] = system: H3K9me2 on the β-globin locus; assay: ChIP-seq for H3K9me2 in HUDEP-2 cells; type: cell-based, human; conditions: HUDEP-2, 1 μM, 4 days
# Method: A total of 0.5–1 × 10^6 cells were cross-linked with 1% formaldehyde for 10 min at room temperature and the reaction was quenched with 250 mM glycine. Cross-linked cells were then lysed with buffer 1 (15 mM Tris-HCl (pH 7.5), 60 mM KCl, 15 mM NaCl, 5 mM MgCl2, 0.1 mM EGTA, 300 mM sucrose, […], 1 mM phenylmethanesulfonyl fluoride (PMSF), 0.5% NP40) and incubated on ice for 10 min. After centrifugation, the pellet was re-suspended in buffer 2 (15 mM Tris-HCl (pH 7.5), 60 mM KCl, 15 mM NaCl, 5 mM MgCl2, 0.1 mM EGTA, 1.2 M sucrose, […], 1 mM PMSF). After centrifugation, the pellet was then re-suspended in MNase buffer (50 mM Tris-HCl (pH 7.5), 1 mM CaCl2, 4 mM MgCl2, 320 mM sucrose, 1 mM PMSF) and digested with 100 U of micrococcal nuclease (Takara) at 37 °C for 15 min. […] The samples were analyzed by qPCR. […] ChIP-seq analysis were analyzed Cutadapt (V1.9.1) for QC, FastQC (V0.10.1) for QC assessment, Bowtie (V2.1.0) for mapping, strand cross-correlation (SCC) for ChIP quality assessment, MACS2 for peak calling, and R package ChIPpeakAnno for Peak annotated.
# [3] = Pharmacokinetic (PK) assay; type: in vivo, mice
# Method: PK studies were performed using 8-week-old male Crl:CD1 ICR mice in accordance with the animal experimental protocol, and procedures were approved by the Animal Care and Ethics Committee of Sekisui Medical. […] […] RK-701 in samples were analyzed by liquid chromatography-tandem mass spectrometry (LC–MS/MS) after deproteinization with acetonitrile. […] PK parameters were calculated using the program Phenix WinNolin (Certara).
# The LC-MS/MS system comprised of ACQUITY Ultra Performance LC (Waters) and 4000 QTRAP (Sciex). Acquity UPLC BEH C18 (2.1 × 50 mm, 1.7 μm, Waters) was used as analytical column. The mobile phase consisted of 0.1% formic acid in water (mobile phase A) and acetonitrile (mobile phase B) at a total flow rate of 0.5 mL/min with a column temperature of 40 °C. The chromatographic separation was achieved using gradient elution. The gradient program was: 20% B from 0.0–0.1 min, 20–95% B from 0.1–1.5 min, 95–95% B from 1.5–2.0 min, and 20% B from 2.01–3.0 min. The MS/MS instrument was operated in positive-ion mode with an ion spray voltage of 4200 V, entrance potential of 10 V and source temperature at 600 °C. The curtain gas was set at 12 psi, ion source gas 1 at 40 psi, ion source gas 2 at 50 psi. […] Data acquisition and quantitation were performed by using Analyst (ver.1.4.3, Sciex).
# [4] = Caco-2 permeability assay; type: in vitro ADME; conditions: human
# [5] = system: Caco-2; assay: Caco-2 permeability assay; type: in vitro ADME; conditions: replicate values
# [6] = Liver microsomal stability assay, rat; type: in vitro ADME; conditions: for Metabolic stability, % remaining of RK-701: Rat
# Method: [Human/Rat] Liver microsome analyses (human, rat) were performed in triplicate by the Sumika Chemical Analysis Service (SCAS) according to the standard protocols. […] [Dog/Monkey] Liver microsome analyses (dog, monkey) were performed in duplicate by RIKEN according to the same protocols as SCAS.
# [7] = target: NSD2 (E1099K) (Homo sapiens, UniProt O96028, E1099K)
# [8] = target: PRMT6 (Homo sapiens, UniProt Q96LA8); assay: biochemical
# [9] = male, Crl:CD1 ICR, mouse, ip, mice, plasma, single intraperitoneal 25 mg/kg
# T1 sequence (O43463 whole entry): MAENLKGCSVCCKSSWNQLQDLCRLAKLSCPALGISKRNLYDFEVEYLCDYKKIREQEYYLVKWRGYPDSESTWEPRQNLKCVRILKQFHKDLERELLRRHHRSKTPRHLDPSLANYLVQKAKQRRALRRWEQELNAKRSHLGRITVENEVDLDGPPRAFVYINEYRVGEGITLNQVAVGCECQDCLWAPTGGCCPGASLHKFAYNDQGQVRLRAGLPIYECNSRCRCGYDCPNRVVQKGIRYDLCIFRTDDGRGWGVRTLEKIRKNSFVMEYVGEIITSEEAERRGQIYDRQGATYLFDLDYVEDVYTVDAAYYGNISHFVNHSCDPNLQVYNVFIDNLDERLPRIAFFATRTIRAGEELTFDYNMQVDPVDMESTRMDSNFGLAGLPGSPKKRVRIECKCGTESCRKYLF
# Chain of NSD2 (E1099K) (O96028 whole entry E1099K): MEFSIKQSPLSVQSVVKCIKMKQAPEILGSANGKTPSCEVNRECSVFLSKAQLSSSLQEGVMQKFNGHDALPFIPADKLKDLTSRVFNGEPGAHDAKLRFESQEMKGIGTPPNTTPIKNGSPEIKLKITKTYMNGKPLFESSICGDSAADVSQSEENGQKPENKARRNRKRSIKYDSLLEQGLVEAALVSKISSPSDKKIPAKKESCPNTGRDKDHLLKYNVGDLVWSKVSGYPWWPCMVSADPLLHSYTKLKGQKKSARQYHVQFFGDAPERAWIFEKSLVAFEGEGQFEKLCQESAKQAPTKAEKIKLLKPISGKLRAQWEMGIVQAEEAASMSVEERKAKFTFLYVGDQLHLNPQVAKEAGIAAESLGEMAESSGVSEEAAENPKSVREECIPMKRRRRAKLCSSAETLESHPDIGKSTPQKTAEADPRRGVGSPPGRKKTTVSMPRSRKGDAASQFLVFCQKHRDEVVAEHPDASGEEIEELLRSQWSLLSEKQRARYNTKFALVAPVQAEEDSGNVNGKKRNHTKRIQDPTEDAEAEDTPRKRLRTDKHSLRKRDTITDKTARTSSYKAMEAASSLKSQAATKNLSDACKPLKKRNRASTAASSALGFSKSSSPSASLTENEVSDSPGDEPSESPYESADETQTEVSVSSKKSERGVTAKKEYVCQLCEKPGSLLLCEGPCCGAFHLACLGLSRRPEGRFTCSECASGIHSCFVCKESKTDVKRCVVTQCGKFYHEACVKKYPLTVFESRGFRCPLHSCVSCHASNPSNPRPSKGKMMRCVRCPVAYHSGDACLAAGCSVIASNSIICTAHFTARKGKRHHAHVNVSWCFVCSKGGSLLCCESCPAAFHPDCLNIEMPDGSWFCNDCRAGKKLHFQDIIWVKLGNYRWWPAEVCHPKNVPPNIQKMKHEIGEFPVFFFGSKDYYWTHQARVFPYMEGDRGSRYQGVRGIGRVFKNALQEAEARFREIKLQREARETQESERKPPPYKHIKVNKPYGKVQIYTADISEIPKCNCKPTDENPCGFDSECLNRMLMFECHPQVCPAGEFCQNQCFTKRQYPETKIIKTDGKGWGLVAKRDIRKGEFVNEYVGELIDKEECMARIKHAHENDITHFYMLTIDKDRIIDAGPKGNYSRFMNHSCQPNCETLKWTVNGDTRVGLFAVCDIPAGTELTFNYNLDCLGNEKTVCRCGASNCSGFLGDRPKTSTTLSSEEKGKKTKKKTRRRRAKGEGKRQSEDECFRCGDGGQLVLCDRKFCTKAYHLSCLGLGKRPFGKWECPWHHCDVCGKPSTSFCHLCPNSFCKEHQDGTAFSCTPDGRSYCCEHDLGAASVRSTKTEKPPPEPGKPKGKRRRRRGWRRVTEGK
# Chain of PRMT6 (Q96LA8 whole entry): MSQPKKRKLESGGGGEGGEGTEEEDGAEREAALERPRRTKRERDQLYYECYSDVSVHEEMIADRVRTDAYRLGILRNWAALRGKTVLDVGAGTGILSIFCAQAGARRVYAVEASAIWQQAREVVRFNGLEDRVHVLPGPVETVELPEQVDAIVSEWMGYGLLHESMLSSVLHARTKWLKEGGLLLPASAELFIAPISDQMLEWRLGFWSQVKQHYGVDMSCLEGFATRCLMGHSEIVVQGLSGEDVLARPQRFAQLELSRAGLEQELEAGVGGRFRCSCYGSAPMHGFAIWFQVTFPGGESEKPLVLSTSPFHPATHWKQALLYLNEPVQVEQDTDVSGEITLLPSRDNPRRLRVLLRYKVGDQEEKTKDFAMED
structure (smiles),measurement,setting,value
Cc1c(C(=O)NC(CCC2CC2)C(=O)Nc2ccc(C#N)cc2)[nH]c2c1C(=O)CC(C)(C)C2 (stereo not drawn) [RK-701],IC50,"[1]; SUV39H1, 1 μM SAM",> 100 µM
same,IC50,"[1]; SUV39H1, RK-701 in duplicate",> 100 µM
same,occupancies of H3K9me2 throughout the β-globin gene locus,[2],reduced
same,concentration at 1 h,"[3]; Time 1 h, read-out: concentration (pharmacokinetic properties)",17.9827 µM and 11.6451 µM
same,concentration at 1 h,"[3]; Time 2 h, read-out: concentration (pharmacokinetic properties)",17.6692 µM and 34.4874 µM
same,concentration at 1 h,"[3]; Time 4 h, read-out: concentration (pharmacokinetic properties)",51.2832 µM and 42.7733 µM
same,concentration at 1 h,"[3]; Time 8 h, read-out: concentration (pharmacokinetic properties)",20.155 µM and 23.2902 µM
same,AUC(0-inf),[3]; [9],418 ± 7 µM·h
same,Cmax,[3]; [9],42.4 µM
same,Tmax,[3]; [9],4 h
same,half-life,[3]; [9],1.4 ± 0.1 h
same,concentration at 1 h,"[3]; male, Crl:CD1 ICR, mouse, plasma, intraperitoneal, 25 mg/kg, Time 1 h, read-out: concentration (pharmacokinetic properties)",9.2 µM
same,concentration at 2 h,"[3]; male, Crl:CD1 ICR, mouse, plasma, intraperitoneal, 25 mg/kg, Time 2 h, read-out: concentration (pharmacokinetic properties)",25.8 µM
same,concentration at 4 h,"[3]; male, Crl:CD1 ICR, mouse, plasma, intraperitoneal, 25 mg/kg, Time 4 h, read-out: concentration (pharmacokinetic properties)",33.1 µM
same,concentration at 8 h,"[3]; male, Crl:CD1 ICR, mouse, plasma, intraperitoneal, 25 mg/kg, Time 8 h, read-out: concentration (pharmacokinetic properties)",28.2 µM
same,Papp A→B,"[4]; Caco-2, A to B, replicate values, read-out: Papp A to B",48 nm/s
same,Papp A→B,"[4]; Caco-2, Apical to Basal, read-out: Caco-2 permeability Papp A to B",52.3 ± 4.7 nm/s
same,Papp B→A,"[4]; Caco-2, B to A, replicate values, read-out: Papp B to A",195 nm/s
same,Papp B→A,"[4]; Caco-2, Basal to Apical, read-out: Caco-2 permeability Papp B to A",189 ± 9.2 nm/s
same,Papp A to B,[5]; A to B,5.724 and 5.177
same,Papp B to A,[5]; B to A,17.8638 and 19.3603
same,"Metabolic stability, % remaining of RK-701","[6]; Time 5, replicate values",89% and 81.8%
same,"Metabolic stability, % remaining of RK-701","[6]; Time 10, replicate values",86.2% and 80.2%
same,"Metabolic stability, % remaining of RK-701","[6]; Time 20, replicate values",63% and 58.9%
same,"Metabolic stability, % remaining of RK-701","[6]; Time 30, replicate values",53.3% and 55.8%
same,"Metabolic stability, % remaining of RK-701","[6]; Time 60, replicate values",36.1% and 33.5%
same,"remaining at 5 min, 1 µM","[6]; rat, liver microsomes, Metabolic stability, % remaining of RK-701, Rat, Time 5, replicate values",89.1%
same,"remaining at 10 min, 1 µM","[6]; rat, liver microsomes, Metabolic stability, % remaining of RK-701, Rat, Time 10, replicate values",83.1%
same,"remaining at 20 min, 1 µM","[6]; rat, liver microsomes, Metabolic stability, % remaining of RK-701, Rat, Time 20, replicate values",61.7%
same,"remaining at 60 min, 1 µM","[6]; rat, liver microsomes, Metabolic stability, % remaining of RK-701, Rat, Time 60, replicate values",35.6%
same,microsomal CLint at 1 μM,"[6]; rat, liver microsomes, read-out: Metabolic stability in liver microsomes CLint",33 µL/min/mg
same,IC50,[7],> 100 µM
"Nc1ncnc2c1ncn2[C@@H]1O[C@H](CSCC[C@H](N)C(=O)O)[C@@H](O)[C@H]1O [SAH, S-(5'-Adenosyl)-L-homocysteine, reference compound]",IC50,[8],0.408 µM
